Like-named read-outs stand apart in the source and are kept apart here.
Tests used:
HEp-2 cells = experiment: Cytotoxicity Determination (CCK-8, without addition of virus); format: cell-based
Summary of the method: (§1)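 HEp-2 cells were seeded at 1,500 cells/well one day before compound addition. Compounds were tested without virus in duplicate over 7 points from 100 μM in 1/2 steps, with 1% final DMSO, 5 days at 37 °C, 5% CO2. Viability was read by CCK-8 after 3-4 hours.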

recombinant RSV complex = recombinant RSV complex (Human respiratory syncytial virus A, UniProt P28887); experiment: RSV Polymerase Inhibition Assay; format: biochemical
Summary of the method: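 10 nM recombinant RSV polymerase complex in Tris-HCl pH 7.5, 6 mM MgCl2 with RNA oligonucleotide template and radionucleotides, incubated 2 h at 30 °C with increasing inhibitor concentrations. Reaction stopped with EDTA; radiolabeled RNA product counted by scintillation.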

RSV replicon = experiment: microbe, parasite or virus in culture; format: cell-based; settings: human respiratory syncytial virus, read-out: EC50, the concentration of the drug required for reducing RSV replicon RNA by 50%
Experimental: The Renilla Luciferase Assay System (Promega, Cat. #E2820) was used to measure anti-RSV replicon activity. […] Luminescence was recorded using a Perkin Elmer multilabel counter Victor3V. EC50, the concentration of the drug required for reducing RSV replicon RNA by 50% in relation to the untreated cell control value, was calculated from the plot of percentage reductions of the optical density (OD) value against the drug concentrations using the Microsoft Excel forecast function.

[1] = system: Respiratory Syncytial Virus (RSV) long strain; experiment: microbe, parasite or virus in culture; format: cell-based; settings: human respiratory syncytial virus, Tables A and B list compounds by EC50 band
Summary of the method: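 HEp-2 cells infected with 100 TCID50 virus per well, compounds in duplicate, 9-point 1/3 dilutions from 100 μM or 1 μM, 1% DMSO. After 5 days at 37 °C, cell viability (CPE protection) read by CCK-8 absorbance at 450 nm, 630 nm background.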

[2] = Cytotoxicity Determination (CCK-8, without addition of virus); format: cell-based; settings: human, 50% cytotoxicity concentration (CC50)
Summary of the method: as §1

[3] = HEp-2, 120 h, read-out: 50% effective concentration (EC50), HEp-2 cells infected with RSV long strain, 5 days, CCK-8 readout
[4] = 120 h, read-out: 50% effective concentration (EC50), HEp-2 cells infected with RSV long strain, 5 days, CCK-8 readout

recombinant RSV complex, sequence (P28887 whole entry): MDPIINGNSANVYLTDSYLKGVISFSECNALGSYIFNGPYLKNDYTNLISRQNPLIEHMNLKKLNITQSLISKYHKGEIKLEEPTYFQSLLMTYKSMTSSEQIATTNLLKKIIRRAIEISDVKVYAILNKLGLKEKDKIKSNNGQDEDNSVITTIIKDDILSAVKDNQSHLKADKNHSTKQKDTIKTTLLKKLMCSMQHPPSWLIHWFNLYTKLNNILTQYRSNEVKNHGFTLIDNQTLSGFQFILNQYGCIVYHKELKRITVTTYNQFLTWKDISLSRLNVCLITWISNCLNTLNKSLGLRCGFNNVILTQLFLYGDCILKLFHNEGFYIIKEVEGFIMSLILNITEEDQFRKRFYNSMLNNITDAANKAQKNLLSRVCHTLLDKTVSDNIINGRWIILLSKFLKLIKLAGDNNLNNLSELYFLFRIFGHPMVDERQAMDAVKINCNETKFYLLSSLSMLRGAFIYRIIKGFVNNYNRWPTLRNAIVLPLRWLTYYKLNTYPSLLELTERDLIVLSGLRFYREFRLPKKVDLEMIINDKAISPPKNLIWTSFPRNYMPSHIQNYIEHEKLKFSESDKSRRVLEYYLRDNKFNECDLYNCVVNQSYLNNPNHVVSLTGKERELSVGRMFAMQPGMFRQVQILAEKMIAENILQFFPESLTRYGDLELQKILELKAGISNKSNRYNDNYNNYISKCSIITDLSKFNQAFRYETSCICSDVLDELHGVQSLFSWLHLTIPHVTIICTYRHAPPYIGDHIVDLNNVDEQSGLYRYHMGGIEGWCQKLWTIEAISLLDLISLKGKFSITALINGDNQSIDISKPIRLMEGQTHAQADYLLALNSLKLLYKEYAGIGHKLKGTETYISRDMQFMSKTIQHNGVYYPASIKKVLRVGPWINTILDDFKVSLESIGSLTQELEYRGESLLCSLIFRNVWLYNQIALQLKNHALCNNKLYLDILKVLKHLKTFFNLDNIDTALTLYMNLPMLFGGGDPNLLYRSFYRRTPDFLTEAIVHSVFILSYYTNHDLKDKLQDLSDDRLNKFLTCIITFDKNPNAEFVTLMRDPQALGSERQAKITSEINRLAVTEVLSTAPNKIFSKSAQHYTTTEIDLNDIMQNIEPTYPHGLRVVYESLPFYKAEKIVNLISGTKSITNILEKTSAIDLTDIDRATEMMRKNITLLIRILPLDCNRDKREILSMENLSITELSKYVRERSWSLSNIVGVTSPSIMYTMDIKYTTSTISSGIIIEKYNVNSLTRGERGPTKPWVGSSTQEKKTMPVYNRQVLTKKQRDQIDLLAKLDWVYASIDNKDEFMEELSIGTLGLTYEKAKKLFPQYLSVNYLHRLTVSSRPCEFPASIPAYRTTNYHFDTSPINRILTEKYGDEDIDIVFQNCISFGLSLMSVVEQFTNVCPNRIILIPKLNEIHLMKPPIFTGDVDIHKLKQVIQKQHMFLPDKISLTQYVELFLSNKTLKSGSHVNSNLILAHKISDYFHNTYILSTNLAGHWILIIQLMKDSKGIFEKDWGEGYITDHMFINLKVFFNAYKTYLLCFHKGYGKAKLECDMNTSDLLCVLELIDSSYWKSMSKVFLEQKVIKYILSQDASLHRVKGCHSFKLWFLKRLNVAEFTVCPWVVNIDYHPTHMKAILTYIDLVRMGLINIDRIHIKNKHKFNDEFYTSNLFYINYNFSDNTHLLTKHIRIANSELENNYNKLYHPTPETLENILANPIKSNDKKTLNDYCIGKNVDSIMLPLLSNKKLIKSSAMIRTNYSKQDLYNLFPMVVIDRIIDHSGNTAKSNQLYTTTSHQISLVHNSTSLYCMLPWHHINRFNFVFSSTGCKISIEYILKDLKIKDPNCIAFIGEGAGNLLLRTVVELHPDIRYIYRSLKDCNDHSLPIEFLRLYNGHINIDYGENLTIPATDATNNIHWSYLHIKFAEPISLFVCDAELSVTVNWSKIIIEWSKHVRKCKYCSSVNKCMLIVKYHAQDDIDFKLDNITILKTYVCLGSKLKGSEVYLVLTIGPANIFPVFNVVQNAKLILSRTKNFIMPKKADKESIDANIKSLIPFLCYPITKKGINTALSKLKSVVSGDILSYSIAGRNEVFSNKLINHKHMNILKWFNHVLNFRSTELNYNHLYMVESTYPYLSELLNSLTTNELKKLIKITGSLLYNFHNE
recombinant RSV complex, sequence (P03421 whole entry, further chain): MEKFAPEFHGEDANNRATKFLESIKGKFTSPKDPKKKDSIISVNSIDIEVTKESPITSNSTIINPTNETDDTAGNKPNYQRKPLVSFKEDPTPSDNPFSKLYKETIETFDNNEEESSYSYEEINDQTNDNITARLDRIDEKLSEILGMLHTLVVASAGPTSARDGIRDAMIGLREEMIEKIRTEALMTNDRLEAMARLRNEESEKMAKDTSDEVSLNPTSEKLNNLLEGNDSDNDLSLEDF

Row | SMILES | CC50 (HEp-2 cells; human, 5 days) | IC50 (recombinant RSV complex) | EC50 (RSV replicon) | EC50 [1, 3] | CC50 (HEp-2 cells) | CC50 at 5 days [2] | EC50 [1, 4]
1 | CCC(O)(CNC(=O)c1ccc(OCCF)c(OC)c1)c1ccc(OC)c(-c2ccc(F)c(Cl)c2)n1 (single isomer, unassigned) [Compound 122b] | 10000 to 100000 nM | < 10000 nM |  |  |  |  | 
2 | COc1cc(C(=O)NCC(O)(c2ccc(OC)c(-c3ccc(F)c(Cl)c3)n2)C(F)(F)F)ccc1OCC(N)=O (single isomer, unassigned) [Compound 239] | 10000 to 100000 nM |  | < 1000 nM |  |  |  | 
3 | COc1cc(C(=O)NCC(O)(c2cc(C(C)(N)CF)cc(-c3ccc(F)cc3)n2)C(F)(F)F)ccc1OCC(N)=O (single isomer, unassigned) [Compound 655] | > 100000 nM | < 1000 nM |  |  |  |  | 
4 | COc1cc(C(=O)NCC(O)(c2cc(C(C)(N)CF)cc(-c3ccc(F)cc3)n2)C(F)(F)F)ccc1OCC(N)=O (single isomer, unassigned) [Compound 656] | 10000 to 100000 nM |  |  | < 1000 nM |  |  | 
5 | COc1cc(C(=O)NCC(O)(c2ccc(OC)c(-c3ccc(F)c(Cl)c3)n2)C2CC2)ccc1OCCO (stereo not shown) [Compound 243] | 10000 to 100000 nM |  |  |  |  |  | 
6 | COc1ccc(C(O)(CNC(=O)c2ccc(O[C@H]3CCNC3=O)c(Cl)c2)C(F)(F)F)cc1-c1ccc(F)c(Cl)c1 (stereo partly shown) [Compound 260] |  |  |  |  | 10000 to 100000 nM |  | 
7 | COc1cc(C(=O)NCC(O)(c2ccc(OC)c(-c3ccc(F)c(Cl)c3)n2)C(F)F)ccc1OCC(N)=O (stereo not shown) [Compound 442] | 10000 to 100000 nM | < 1000 nM | < 1000 nM | < 1000 nM |  |  | 
8 | COc1cc(C(=O)NCC(O)(c2ccc(OC)c(-c3ccc(F)c(Cl)c3)n2)C(F)F)ccc1OCC(N)=O (stereo not shown) [Compound 447] | > 100000 nM |  |  |  |  |  | 
9 | COc1cc(C(=O)NCC(O)(c2cc(C(C)(C)N)cc(-c3ccc(F)cc3)n2)C(F)(F)F)ccc1OC1CC(O)C1 (stereo not shown) [Compound 596] |  | < 1000 nM | < 1000 nM | < 1000 nM |  | 10000 to 100000 nM | 
10 | COc1cc(C(=O)NCC(O)(c2cc(C3(N)CC3)cc(-c3ccc(F)cc3)n2)C(F)(F)F)ccc1OC[C@@H](C)O (stereo partly shown) [Compound 598] |  | < 1000 nM | < 1000 nM | < 1000 nM |  | 10000 to 100000 nM | 
11 | COc1cc(C(=O)NCC(O)(c2cc(C(C)(C)NC(C)=O)cc(-c3ccc(F)cc3)n2)C(F)(F)F)ccc1OCCO (stereo not shown) [Compound 611] |  | < 1000 nM | < 1000 nM | < 1000 nM |  | > 100000 nM | 
12 | COc1cc(C(=O)NCC(O)(c2cc(C(C)(C)NC(C)=O)cc(-c3ccc(F)c(Cl)c3)n2)C(F)(F)F)ccc1OCC(N)=O (stereo not shown) [Compound 612] |  | < 1000 nM | < 1000 nM | < 1000 nM |  | > 100000 nM | 
13 | COc1cc(C(=O)NCC(O)(c2cc(C(C)(N)CF)cc(-c3ccc(F)cc3)n2)C(F)(F)F)ccc1OC[C@@H](C)O (stereo partly shown) [Compound 614] |  | < 1000 nM | < 1000 nM | < 1000 nM |  | 10000 to 100000 nM | 
14 | COc1cc(C(=O)NCC(O)(c2cc(C(C)(N)CF)cc(-c3ccc(F)cc3)n2)C(F)(F)F)ccc1OCC(N)=O (stereo not shown) [Compound 615] |  | < 1000 nM | < 1000 nM | < 1000 nM |  | > 100000 nM | 
15 | COc1cc(C(=O)NCC(O)(c2cc(C(C)(C)NC(C)=O)cc(-c3ccc(F)cc3)n2)C(F)(F)F)ccc1OCC(N)=O (stereo not shown) [Compound 621] |  | < 1000 nM | < 1000 nM | < 1000 nM |  | > 100000 nM | 
16 | COc1cc(C(=O)NCC(O)(c2cc(C(C)(C)N)cc(-c3ccc(C#N)cc3)n2)C(F)(F)F)ccc1OCCO (stereo not shown) [Compound 623b] |  | < 1000 nM | < 1000 nM | < 1000 nM |  | > 100000 nM | 
17 | COc1cc(C(=O)NC[C@](O)(c2cc(C(C)(C)N)cc(-c3ccc(C#N)cc3)n2)C(F)(F)F)ccc1OC[C@@H](C)O [Compound 624b] |  | < 1000 nM | < 1000 nM | < 1000 nM |  | > 100000 nM | 

Row | SMILES | CC50 (HEp-2 cells; human, 5 days) | IC50 (recombinant RSV complex) | EC50 (RSV replicon) | EC50 [1, 3] | CC50 (HEp-2 cells) | CC50 at 5 days [2] | EC50 [1, 4]
18 | COc1cc(C(=O)NC[C@@](O)(c2cc3c(c(-c4ccc(F)cc4)n2)OC[C@@]3(C)N)C(F)(F)F)ccc1OC[C@@H](C)O [Compound 630] |  | < 1000 nM | < 1000 nM |  |  | 10000 to 100000 nM | < 1000 nM
19 | COc1cc(C(=O)NC[C@](O)(c2cc3c(c(-c4ccc(F)cc4)n2)OCC3(C)CN)C(F)(F)F)ccc1OCCO (stereo partly shown) [Compound 633b] |  | < 1000 nM | < 1000 nM | < 1000 nM |  | 10000 to 100000 nM | 
20 | COc1cc(C(=O)NCC(O)(c2cc(C(C)(C)N)cc(-c3ccc(F)cc3)n2)C2CC2)ccc1OCCO (stereo not shown) [Compound 634] |  | < 1000 nM | < 1000 nM | < 1000 nM |  | > 100000 nM | 
21 | COc1cc(C(=O)NCC(O)(c2cc3c(c(-c4ccc(F)cc4)n2)OCC3(C)N)C(F)(F)F)cc2cccnc12 (stereo not shown) [Compound 635] |  | < 1000 nM | < 1000 nM | < 1000 nM |  | 10000 to 100000 nM | 
22 | COc1cc(C(=O)NCC(O)(c2cc(C(C)(C)N)cc(-c3ccc(F)c(Cl)c3)n2)C(F)(F)F)ccc1OCS(N)(=O)=O (stereo not shown) [Compound 637] |  | < 1000 nM | < 1000 nM | 1000 to 50000 nM |  | 10000 to 100000 nM | 
23 | COc1cc(C(=O)NCC(O)(c2cc3c(c(-c4ccc(F)c(Cl)c4)n2)OCC3(C)N)C(F)(F)F)ccc1OCCO (stereo not shown) [Compound 638] |  | < 1000 nM | < 1000 nM | < 1000 nM |  | 10000 to 100000 nM | 
24 | COc1cc(C(=O)NCC(O)(c2cc3c(c(-c4ccc(Cl)cc4)n2)OCC3(C)N)C(F)(F)F)ccc1OCCO (stereo not shown) [Compound 640] |  | < 1000 nM | < 1000 nM |  |  | 10000 to 100000 nM | < 1000 nM
25 | COc1cc(C(=O)NCC(O)(c2cc3c(c(-c4ccc(F)cc4)n2)OCC3(C)N)C(F)(F)F)cc2ccc(=O)[nH]c12 (stereo not shown) [Compound 642] |  | < 1000 nM | < 1000 nM | < 1000 nM |  | 10000 to 100000 nM | 
26 | COc1cc(C(=O)NCC(O)(c2cc(C(C)(C)N)cc(-c3ccc(F)cc3)n2)C(F)(F)F)cnc1OCCO (stereo not shown) [Compound 643] |  | < 1000 nM | < 1000 nM | < 1000 nM |  | > 100000 nM | 
27 | CC(C)(N)c1cc(-c2ccc(F)cc2)nc(C(O)(CNC(=O)c2ccc(OC3CC3)c(CO)c2)C(F)(F)F)c1 (stereo not shown) [Compound 644] |  | < 1000 nM | < 1000 nM | < 1000 nM |  | 10000 to 100000 nM | 
28 | COc1cc(C(=O)NCC(O)(c2cc3c(c(-c4ccc(C(F)(F)F)cc4)n2)OCC3(C)N)C(F)(F)F)ccc1OCCO (stereo not shown) [Compound 645] |  | < 1000 nM | < 1000 nM | < 1000 nM |  | 10000 to 100000 nM | 
29 | COc1cc(C(=O)NCC(O)(c2cc3c(c(-c4ccc(Cl)cc4)n2)OCC3(C)N)C(F)(F)F)ccc1CO[C@@H](C)O (stereo partly shown) [Compound 646] |  | < 1000 nM | < 1000 nM | < 1000 nM |  | 10000 to 100000 nM | 
30 | COc1cc(C(=O)NCC(O)(c2cc([C@]3(C)CCN3)cc(-c3ccc(F)cc3)n2)C(F)(F)F)ccc1OCCO (stereo partly shown) [Compound 650] |  | < 1000 nM | < 1000 nM |  |  | 10000 to 100000 nM | < 1000 nM
31 | COc1cc(C(=O)NC[C@@](O)(c2cc3c(c(-c4ccc(F)cc4)n2)OCC3(N)CO)C(F)(F)F)ccc1OC1CC1 (stereo partly shown) [Compound 653] |  | < 1000 nM | < 1000 nM | < 1000 nM |  | > 100000 nM | 
32 | COc1cc(C(=O)NCC(O)(c2cc3c(c(-c4ccc(F)c(F)c4)n2)OCC3(C)N)C(F)(F)F)ccc1OCCO (stereo not shown) [Compound 663] |  | < 1000 nM | < 1000 nM | < 1000 nM |  | 10000 to 100000 nM | 
33 | COc1cc(C(=O)NCC(O)(c2cc3c(c(-c4ccc(F)c(C(F)(F)F)c4)n2)OCC3(C)N)C(F)(F)F)ccc1CO[C@@H](C)O (stereo partly shown) [Compound 665] |  | < 1000 nM | < 1000 nM | < 1000 nM |  | 10000 to 100000 nM | 

— patent US11021444B2, “Antiviral compounds” (priority 2013, dated 2021)
